melting point | SMILES
146 to 149 °C | CCC/C=C/CC1CC(=O)N(c2cc(Cc3n[nH]c(=O)c4ccccc34)ccc2F)C1=O (stereo not shown) [Example 29, 1-[2-fluoro-5-(4-oxo-3,4-dihydrophthalazin-1-ylmethyl)phenyl]-3-hex-2-enylpyrrolidine-2,5-dione]
138 to 141 °C | CCCCC/C=C/CC1CC(=O)N(c2cc(Cc3n[nH]c(=O)c4ccccc34)ccc2F)C1=O (stereo not shown) [Example 28, 1-[2-fluoro-5-(4-oxo-3,4-dihydrophthalazin-1-ylmethyl)phenyl]-3-oct-2-enylpyrrolidine-2,5-dione]
121 to 127 °C | O=C(N[C@H]1CC(=O)N(c2cc(Cc3n[nH]c(=O)c4ccccc34)ccc2F)C1=O)OCc1ccccc1 [Example 35, (S)-3-benzyloxycarbonylamino-1-[2-fluoro-5-(4-oxo-3,4-dihydrophthalazin-1-ylmethyl)phenyl]pyrrolidine-2,5-dione]
146 to 149 °C | CCCCCC/C=C/CC1CC(=O)N(c2cc(Cc3n[nH]c(=O)c4ccccc34)ccc2F)C1=O (stereo not shown) [Example 30, 1-[2-Fluoro-5-(4-oxo-3,4-dihydrophthalazin-1-ylmethyl)phenyl]-3-non-2-enylpyrrolidine-2,5-dione]
229 to 230 °C | O=C1C2CC2C(=O)N1c1cc(Cc2n[nH]c(=O)c3ccccc23)ccc1Cl (stereo not shown) [Example 41, 3-[2-chloro-5-(4-oxo-3,4-dihydrophthalazin-1-ylmethyl)phenyl]-3-azabicyclo[3.1.0]hexane-2,4-dione]
215 to 220 °C | O=C1CC2(CCCC2)C(=O)N1c1cc(Cc2n[nH]c(=O)c3ccccc23)ccc1F [Example 32, 2-[2-fluoro-5-(4-oxo-3,4-dihydrophthalazin-1-ylmethyl)phenyl]-2-azaspiro[4.4]nonane-1,3-dione]
131 to 135 °C | O=C1CC(c2ccccc2)C(=O)N1c1cc(Cc2n[nH]c(=O)c3ccccc23)ccc1Cl (stereo not shown) [Example 39, 1-[2-chloro-5-(4-oxo-3,4-dihydrophalazin-1-ylmethyl)phenyl]-3-phenylpyrrolidine-2,5-dione]

— patent publication US7196085B2, “Phthalazinone derivatives” (KuDOS Pharmaceuticals Limited, priority 2002, dated 2007)
